Measured values from patent US20220023325A1, “SPECIFIC TLR4 ANTAGONIST IN THE TREATMENT OF MULTIPLE MYELOMA” (Etablissement Français du Sang, priority 2016, published 2022).
Where “and” joins values, the source holds several entries; their conditions need not be identical. Identical values can stand only once.

Assays:
[1] = molecular target: T1, TLR4 (Homo sapiens, UniProt O00206+Q9Y6Y9); assay: Adhesion molecule expression on MM patient MSCs after TLR4 stimulation; type: cell-based
T1 construct: the TLR4 molecule is overexpressed both at the transcriptional level (mRNA) and at the protein level in the MM MSCs; endogenous in cells; host or cells: primary mesenchymal stromal cells (MSCs) of multiple myeloma patients
T1 sequence (O00206 24-839): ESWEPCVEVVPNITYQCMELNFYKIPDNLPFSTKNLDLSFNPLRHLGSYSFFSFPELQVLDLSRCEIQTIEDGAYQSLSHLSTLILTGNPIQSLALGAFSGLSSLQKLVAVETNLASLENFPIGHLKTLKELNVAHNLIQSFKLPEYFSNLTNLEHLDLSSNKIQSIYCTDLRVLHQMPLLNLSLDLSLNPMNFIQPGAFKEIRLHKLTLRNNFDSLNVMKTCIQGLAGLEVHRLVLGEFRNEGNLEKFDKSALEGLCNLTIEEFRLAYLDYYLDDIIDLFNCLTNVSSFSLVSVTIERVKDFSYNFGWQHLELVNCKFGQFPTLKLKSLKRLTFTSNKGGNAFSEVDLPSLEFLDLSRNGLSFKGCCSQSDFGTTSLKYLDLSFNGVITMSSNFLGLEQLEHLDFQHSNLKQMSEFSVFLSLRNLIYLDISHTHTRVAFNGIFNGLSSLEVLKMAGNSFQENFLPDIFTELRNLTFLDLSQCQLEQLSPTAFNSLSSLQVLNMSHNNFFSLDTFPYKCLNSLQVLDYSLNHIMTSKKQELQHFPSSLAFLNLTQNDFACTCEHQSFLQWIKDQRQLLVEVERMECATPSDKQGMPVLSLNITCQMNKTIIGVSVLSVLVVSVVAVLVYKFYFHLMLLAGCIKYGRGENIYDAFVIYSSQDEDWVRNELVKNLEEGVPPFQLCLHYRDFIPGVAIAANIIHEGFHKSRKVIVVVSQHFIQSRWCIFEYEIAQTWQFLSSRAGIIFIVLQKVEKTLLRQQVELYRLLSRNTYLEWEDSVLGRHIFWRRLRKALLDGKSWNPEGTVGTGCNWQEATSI
T1 sequence (Q9Y6Y9 17-160 limits assumed): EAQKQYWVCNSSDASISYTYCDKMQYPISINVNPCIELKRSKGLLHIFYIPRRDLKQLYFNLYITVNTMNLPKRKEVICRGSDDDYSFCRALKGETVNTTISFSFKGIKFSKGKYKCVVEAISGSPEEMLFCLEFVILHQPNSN
Text: FIG. 3: Expression of different adhesion molecules involved in the interaction with MM plasma cells (CD49d, CD49e, CD54 and CD106) on the surface of MSCs of healthy subjects and patients with MM, stimulated or not with LPS. *p≤0.05**p≤0.01
FIG. 5: Expression of CD54 by MSCs from healthy donors or from patients with MM, whether stimulated or not with Hsp70. p*≤0.05
(§1) The inventors then studied the differential activation of TLR4 in the MSCs of healthy donors or MM patients. They analyzed the effect of stimulation by LPS, the TLR4 reference ligand widely described in the literature, on the expression of several adhesion molecules (CD49d/VLA-4, CD49e/VLA-5, CD54/ICAM-1 and CD106/VCAM-1) involved in the interaction between MSCs and malignant plasma cells. The level of expression (MFI: mean fluorescence intensity) of each molecule is shown in the histogram of FIG. 3.
In order to further investigate the role of TLR4 in the context of MM and to move closer to pathophysiology, the inventors stimulated MSCs with Hsp70, an endogenous ligand of TLR4 actively released in the MM microenvironment and secreted by the cell line of MM MOLP-6 (up to 200 ng/ml) (FIG. 4). In addition, this endogenous ligand has been described in the literature to have a chemoprotective role for MM malignant plasma cells (Nimmanapalli et al (2008) Br. Haematol 142: 551-561). […] Indeed Hsp-70 is a monomeric molecule and therefore induces a less important stimulation than LPS (multimeric). Nevertheless, once again, the MM MSCs respond better than the healthy MSCs.

[2] = molecular target: T1, TLR4; assay: Secretion of soluble factors (IGF-1, IL6) by MM patient MSCs after TLR4 stimulation; type: cell-based
Text: (§2) FIG. 6: Secretion of IL6 by MSCs from healthy donors or from patients with MM, stimulated or not with LPS.
FIG. 7: Secretion of IL6 by MSCs of healthy donors or from MM patients, whether stimulated or not with Hsp70.
(§3) The inventors also evaluated the effect of TLR4 stimulation on the soluble IGF-1 and IL6 factors involved in the survival and proliferation of myeloma cells.

[3] = molecular target: T1, TLR4; assay: Adhesion molecule expression on healthy donor MSCs after TLR4 stimulation; type: cell-based
Text: as §1, with “FIG. 3: Expression of different adhesion molecules involved in the interaction with MM plasma cells (CD49d, CD49e, CD54 and CD106) on the surface of MSCs of healthy subjects and patients with MM, stimulated or not with LPS. *p≤0.05**p≤0.01 FIG. 5: Expression of CD54 by MSCs from healthy donors or from patients with MM, whether stimulated or not with Hsp70. p*≤0.05 The inventors” for “The inventors”

[4] = molecular target: T1, TLR4; assay: Secretion of soluble factors (IGF-1, IL6) by healthy donor MSCs after TLR4 stimulation; type: cell-based
Text: as §2, §3

[5] = test system: MOLP-6 cells; assay: MOLP-6 myeloma cells cultured alone, treated with C34; type: cell-based, human; conditions: MOLP-6 alone, C34 1 μM or 10 μM
Procedure: (§4) FIG. 9: Number of myeloma cells (MOLP-6)after culture of MOLP-6 alone untreated (NT) or treated with 1 μM or 10 μM of C34 (TLR4 antagonist), or in coculture with a stroma of MSCs from healthy or MM donors, untreated or treated with 1 μM or 10 μM C34.
(§5) To evaluate the role of TLR4 in the MSC/myeloma cell interaction, the inventors used a specific TLR4 antagonist, the C34 compound, marketed by Tocris, and a stroma-dependent myeloma cell line, the MOLP-6 line. Some studies have used stroma-independent myeloma cell lines such as MM1S or RPM18226. In this study, in order to approach the pathology and mimic real interactions between MSC and plasma cells, the inventors used a stroma-dependent cell line for its proliferation. Indeed, during MM (in the establishment and maintenance phases of the disease), myeloma cells strongly adhere to the MSCs of the stroma, which gives chemoresistance and survival signals favoring the evolution of MM.
(§6) Then they treated the healthy MSCs and MM with the C34 before and in co-culture with the MOLP-6. With the healthy stroma, the C34 antagonist (at 1 and 10 μM) has no effect on the growth support of MOLP-6, whereas with the stroma of MM, the TLR4 antagonist affects growth of MOLP-6 cells at the two doses used (33% decrease, FIG. 9).

[6] = test system: MOLP-6 cells; assay: MOLP-6 growth in coculture with stroma of healthy donor MSCs; type: cell-based, human
Procedure: as §4, §5
as §6, with “9). […]” for “9).”
(§7) After 7 days of culture, they calculated the percent inhibition of plasmocyte growth (FIGS. 11 and 12).

[7] = test system: MOLP-6 cells; assay: MOLP-6 growth in coculture with stroma of MM patient MSCs; type: cell-based, human
Procedure: as §4, §5, §6
The inventors co-cultured MSCs from 4 healthy donors (H) or 5 patients suffering from MM (MYE) as well as stroma-dependent MOLP-6 plasma cells: • without treatment (NT) • in the presence of C34 alone at 1 μM (C34 1 μM), • in the presence of melphalan alone at 100 nM (Mel 100 nM), • in the presence of lenalidomide alone at 100 nM (Len 100 nM), • in the presence of a combination of C34 at 1 μM and melphalan at 100 nM (Mel 100 nM+C34 1 μM), or • in the presence of a combination of C34 at 1 μM and lenalidomide at 100 nM (Len 100 nM+C34 1 μM).
as §7

[8] = MM MSCs, stimulation with Hsp70

## Hsp70: endogenous ligand of TLR4, chaperone heat shock protein 70
[1]; [8]
  CD54 expression: significantly increased
[2]; [8]
  IL6 secretion: increases

## lipopolysaccharide [LPS]
[3]; healthy MSC, LPS stimulation
  expression of CD49e: significantly increased
  expression of CD106: no effect
  expression of CD49d: no effect
[3]; healthy MSCs after LPS stimulation (basal 9.6)
  CD54 MFI: 148.7 and 149
[1]; MM MSC, LPS stimulation
  expression of CD49e: significantly increased
  expression of CD106: no effect
  expression of CD49d: no effect
[1]; MSCs of MM after LPS stimulation (basal 4.3)
  CD54 MFI: 215.9 and 216
[4]; healthy MSCs after LPS stimulation (unstimulated 0.02)
  secretion of IL6: 0.1 pg/cell
[4]; healthy MSCs, LPS stimulation
  IGF-1 secretion: no effect
[2]; MM MSCs, LPS stimulation
  IGF-1 secretion: no effect
[2]; MSCs of MM after LPS stimulation (unstimulated 0.08)
  secretion of IL6: 0.7 pg/cell

## CC(=O)N[C@H]1[C@@H](OC(C)C)O[C@H](COC(C)=O)[C@@H](OC(C)=O)[C@@H]1OC(C)=O [C34]
[5]
  direct effect on MOLP-6 cells (number of myeloma cells): did not directly affect
[6]; healthy MSC/MOLP-6 cocultures, C34 1 μM + melphalan or lenalidomide 100 nM, 7 days
  effect on inhibition of plasmocyte growth in the presence of chemotherapeutic agents: no significant synergistic effect
[6]; healthy stroma, C34 at 1 and 10 μM
  effect on the growth support of MOLP-6: no effect
[7]; MM MSC coculture, C34 1 μM + lenalidomide 100 nM, 7 days
  effect on inhibition of proliferation of MM plasmocytes in combination with lenalidomide: synergistic effect
[7]; MM MSC coculture, C34 1 μM + melphalan 100 nM, 7 days
  effect on inhibition of proliferation of MM plasmocytes in combination with melphalan: synergistic effect
[7]; stroma of MM, C34 at the two doses used (1 and 10 μM)
  decrease of growth of MOLP-6 cells: 33%
